# Results reported in US12605382B2, “Pharmaceutical composition for preventing, alleviating, or treating cancer containing 2,6-dichloro-4-(4-(4-hydroxycyclohexylamino)-7H- pyrrolo[2,3-d]pyrimidin-5-yl)phenol as active ingredient” (JBKLAB CO., LTD., priority 2021, dated 2026).
# Assays:
# BRD4 = test: Western blotting of tumor tissue from MDA-MB-231 tumor-bearing mice; assay type: in vivo, BALB/c-nude mice; conditions: 5, 10 and 20 mg/kg (T4, T5, T6), once by intravenous injection
# Description: (§1) An experiment was performed to confirm the inhibitory effect of the compound of Example 1, the active ingredient of the pharmaceutical composition of the present invention, on the expression of major proteins on cancer cell growth through Western blotting.
# (§2) Specifically, MDA-MB-231 cells, a TNBC cell line, were cultured in a 37° C., 5% CO2 incubator, and the medium used for cell culture was RPMI-1640 supplemented with 10% FBS. Tumors were induced by subcutaneously injecting 5×10^6/head/100 μl of MDA-MB-231 cells into the right neck of BALB/c-nude mice (5 mice each in control and administration groups), and the experiment was performed when the tumor size reached 200 mm^3. The compound of Example 1, the active ingredient of the pharmaceutical composition of the present invention, was administered once by intravenous injection at concentrations of 5, 10, and 20 mg/kg (T4, T5, and T6) and then euthanized using CO2, and the resulting tumor tissues from the control and administration groups were taken and subjected to Western blotting. Proteins were isolated from the tumor tissues and the results of Western blotting were confirmed using BRD4, c-myc, PD-L1, and Actin antibodies, respectively.
# PD-L1 = test: as above; assay type: in vivo, BALB/c-nude mice; conditions: 5, 10 and 20 mg/kg (T4, T5, T6), once by intravenous injection
# Description: as §1, §2
# c-myc = test: as above; assay type: in vivo, BALB/c-nude mice; conditions: 5, 10 and 20 mg/kg (T4, T5, T6), once by intravenous injection
# Description: as §1, §2
# BT20 = test: Cell viability assay (WST-8), breast cancer cell line; assay type: cell-based, human; conditions: dose dependently
# Description: An experiment was performed to confirm the growth inhibitory effect of the compound of Example 1, the active ingredient of the pharmaceutical composition of the present invention, on breast cancer cell lines through cell viability assay.
# Specifically, the cell viability assay was performed as follows. BT20, a human-derived breast cancer cell line, and MDA-MB-231, a TNBC cell line, were each seeded in 96-well plates at the density of 5×10^3 cells/well and cultured for 24 hours. Then, I-bet 762 and the compound of Example 1 were treated thereto at different concentrations and cultured for 48 hours. At the end of the culture, 100 μl of WST-8 solution was added to each well of the plate, and the absorbance was measured with a microplate reader using a 450 nm optical filter to measure the formazan produced by the reducing factors in living cells.
# FIGS. 4A-4C show the cell viability of MDA-MB-231, MDA-MB-453, and BT-20 after 24 hours of treatment with the compound of Example 1. As shown in FIGS. 4A-4C, it was confirmed that the cell viability was suppressed not only in general breast cancer cell lines, but also in TNBC cell lines dose dependently.
# breast cancer cell line = test: Formation of mammospheres in a breast cancer cell line; assay type: cell-based
# [1] = system: breast cancer cells (MBA-MB-231); test: Xenograft tumor growth inhibition, TNBC cells in nude mice; assay type: in vivo; conditions: xenograft Balb/c nude mice, tumor size measured for 3 weeks
# Description: An experiment was performed to confirm the tumor inhibition of the compound of Example 1, the active ingredient of the pharmaceutical composition of the present invention, on a xenograft tumor sample of breast cancer cells (MBA-MB-231), a human-derived TNBC cell line.
# Specifically, to confirm the […] inhibitory effect of the compound of Example 1, the active ingredient of the pharmaceutical composition of the present invention, on breast cancer cell viability, an experiment was performed using 80 female 5-week-old xenograft Balb/c nude mice, which were approximately 8 weeks old at the start of administration.
# The experimental xenograft Balb/c nude mice lacks T cells, the immune cells, were selected as an animal model suitable for transplanting human cancer cells. At the time of administration, animals within ±20% of the total average body weight were selected, and tumor growth was checked twice a week on the surface, and the size of the tumor was measured with a vernier caliper for 3 weeks.
# [2] = system: tumor tissues (MDA-MB-231); test: Number of apoptotic bodies in tumor tissues; assay type: in vivo, BALB/c-nude mice; conditions: for number of apoptotic body: sum of five areas at ×400
# Description: (§3) An experiment was performed to confirm the tumor necrosis effect of the compound of Example 1, the active ingredient of the pharmaceutical composition of the present invention, by measuring the number of apoptotic bodies in tumors and H&E staining of the tumor tissues in BALB/c-nude mice injected with cancer cell lines.
# Specifically, to measure the number of apoptotic bodies in the tumor tissues of the T4, T5, and T6 groups of Experimental Example 1, five areas where the tumor tissues were growing were randomly selected and the number of apoptotic bodies was measured at ×400 magnification. The sum of the measurements was calculated, expressed as individual values, and statistically compared using GraphPad Prism 5.
# [3] = system: tumor tissues (MDA-MB-231); test: H&E staining of tumor tissue, cell necrosis areas; assay type: in vivo, BALB/c-nude mice; conditions: T4, T5 and T6 groups
# Description: as §3
# Then, the sections were stained with hematoxylin and eosin, and cell necrosis areas were observed.
# [4] = system: 4T1 murine triple negative breast cancer cells; test: Tumor size in triple-negative breast cancer allograft mouse model; assay type: in vivo, BALB/c mice; conditions: 10 mg/kg intravenously
# Description: 4T1 murine triple negative breast cancer cells (6×10^5 cells) were injected into the hind limbs of 6-week-old immune-competent BALB/c mice. Seven days after injection, after confirming consistent tumor growth, 10 mice from each group were selected and used in subsequent experiments.
# The experimental groups consisted of a control group (no treatment), a radiotherapy group, a group treated with the compound of Example 1, and a group treated with a combination of the compound of Example 1 and radiotherapy. Each treatment was carried out for 31 days after tumor implantation.
# Radiation treatment was performed using electron beams, and a total of 24 Gy was irradiated three times, once every two days for one week (Days 10, 12, and 14) (8 Gy×3). The compound of Example 1 was administered intravenously at a dose of 10 mg/kg once every 2 or 3 days (Days 10, 12, 14, 17, 19, and 21) for a total of 6 times over 2 weeks. On the days when radiation therapy and drug administration were conducted simultaneously, the compound of Example 1 was administered after confirming that the mice had recovered from anesthesia 4 hours after radiation therapy.
# On each treatment day, the length and width of the tumor were measured using a vernier caliper, and then the tumor volume (mm^3) was calculated using mathematical formula 1 below. Volume (mm^3)=length (mm)×{width (mm)}^2×0.5 [Mathematical Formula 1]
# OVCAR-3 = test: Cell viability alone and in combination with cisplatin; assay type: cell-based, Human
# Description: (§4) Human ovarian cancer cell lines (SKOV-3 and OVCAR-3) were treated with control (no treatment), 0.1 μM of the compound of Example 1, 1 μM of cisplatin, and 0.1 μM of the compound of Example 1/1 μM of cisplatin, and the cell viability of SKOV-3 and OVCAR-3 was confirmed.
# SKOV-3 = test: as above; assay type: cell-based, Human
# Description: as §4
# [5] = 0.1 μM Example 1 combined with 1 μM cisplatin
compound,measurement,setting,value
"Oc1c(Cl)cc(-c2c[nH]c3ncnc(N[C@H]4CC[C@H](O)CC4)c23)cc1Cl [Example 1, (trans)-2,6-dichloro-4-(4-(4-hydroxycyclohexylamino)-7H-pyrrolo[2,3-d]pyrimidin-5-yl)phenol]",expression of BRD4 in tumor tissue vs untreated negative control (NC),BRD4,reduced
same,expression of PD-L1 in tumor tissue vs untreated negative control (NC),PD-L1,reduced
same,expression of c-myc in tumor tissue vs untreated negative control (NC),c-myc,reduced
same,cell viability,"BT20; BT20, 48 hours",inhibited the cell viability
same,cell viability,"BT20; BT-20, 24 hours",suppressed
same,formation of mammospheres,breast cancer cell line,inhibits
same,tumor growth,[1],significantly inhibit the tumor growth
same,number of apoptotic bodies compared to NC (Negative Control),"[2]; T4, T5 and T6 groups, dose dependently",higher
same,number of apoptotic body,[2]; T4: 5 mg/kg once i.v.,9.6 ± 4.7
same,number of apoptotic body,[2]; T5: 10 mg/kg once i.v.,9.2 ± 4.6
same,number of apoptotic body,[2]; T6: 20 mg/kg once i.v.,13.6 ± 7.4
same,areas of tissue necrosis compared to NC group (H&E),[3],more areas of tissue necrosis
same,tumor growth compared to control group,"[4]; alone, 6 times over 2 weeks, observed 31 days",significantly delayed the tumor growth
same,tumor growth compared to each administration alone,"[4]; combined with radiation (8 Gy×3), 6 times",superior inhibitory effect on the tumor growth
same,cell viability,OVCAR-3; [5],further inhibited (synergistic effect)
same,cell viability,OVCAR-3; 0.1 μM alone,suppressed
same,cell viability,SKOV-3; [5],further inhibited (synergistic effect)
same,cell viability,SKOV-3; 0.1 μM alone,suppressed
